In assay [1] the test system is microorganisms. The experiment in a line: Morphology, biofilm and growth disruption by peptides (Table 5). The class given is cell-based. Further details: key: A: Peptide aggregates; B: Less hyphal formation; Clumps; Diffuse clumps and small polyps; F: Diffuse growth; H: Thin; I: Growth inhibition; Microcolony formation; Rippled; Small polyps; Thick; W: Halo formation on top, microlonies on bottom. An excerpt: In certain embodiments peptides that induce alterations in phenotype or other biological activities can also be used as antimicrobial effector moieties.

A further assay concerns bacteria. The experiment in a line: Binding of targeting peptides to microorganisms (Table 3). Conditions: peptide binding in aqueous buffers that varied depending on peptide solubility; preferably 1x PBS.
The test system of assay [2] is microorganisms. Kind of assay: Peptide activities: binding, antimicrobial, growth or phenotype altering (Table 8). The source says: In certain embodiments, peptides described herein can have multiple activities. Thus for example, a peptide can have both binding/targeting activity and antimicrobial activity. Such peptides can be used, e.g., in a chimeric construct, for any or all of these properties. Thus, for example, a peptide designated “B” in Table 8 can be used as a targeting peptide. If it is also designated G or M it can also be used for antimicrobial activity.

Entries after “also recorded” stand apart in the source; their conditions may differ. Ends that are not written are not given here.

For “PF-452 (MNNWIKVAQISVTVINEVIDIMKEKQNGGK; Peptide with targeting and/or antimicrobial activity)”, the “Organism, effect (morphology, biofilm and growth disruption)” value was “E. coli (C)” in the assay on microorganisms [1] (E. coli); “E. faecalis (C)” in the assay on microorganisms [1] (E. faecalis); “MRSA (C)” with microorganisms [1] (MRSA); “S. epidermidis (C)” in the assay on microorganisms [1] (S. epidermidis); “S. pneumoniae (R)” with microorganisms [1] (S. pneumoniae). Further, the “Target(s) (microorganisms bound by the targeting peptide)” value in the assay with bacteria is reported as “M. luteus; also recorded: P. aeruginosa; also recorded: C. albicans; also recorded: S. pneumoniae; also recorded: E. faecalis; also recorded: C. jeikeium; also recorded: M. smegmatis”. In the assay on microorganisms [2], the Activities result was “G B”.

Turning to “PF-453 (IIQDIAHAFGY; Peptide with targeting and/or antimicrobial activity)”, the “Organism, effect (morphology, biofilm and growth disruption)” value with microorganisms [1] (E. coli) is given as “E. coli (C)”; in the assay on microorganisms [1] (MRSA), “MRSA (C)”; in the assay on microorganisms [1] (S. epidermidis), “S. epidermidis (C)”; in the assay on microorganisms [1] (S. pneumoniae) it was “S. pneumoniae (C)”. Further, the “Target(s) (microorganisms bound by the targeting peptide)” value in the assay with bacteria is “M. luteus; also recorded: E. coli; also recorded: P. aeruginosa; also recorded: S. pneumoniae; also recorded: E. faecalis; also recorded: C. jeikeium; also recorded: C. jejuni”. Moreover, the Activities entry in the assay on microorganisms [2] is listed as “G B”.

On to “PF-456 (TCVKPRTIN; Peptide with targeting and/or antimicrobial activity)”, for which the “Organism, effect (morphology, biofilm and growth disruption)” value is reported as “C. jejuni (A)” with microorganisms [1] (C. jejuni) and “E. faecalis (A)” in the assay with microorganisms [1] (E. faecalis). Besides, the “Target(s) (microorganisms bound by the targeting peptide)” value in the assay with bacteria was “C. albicans and MRSA and E. faecalis and C. jeikeium and C. jejuni”. Besides, in the assay with microorganisms [2], the Activities result was “G B”.

Consider “PF-457 (INKYHHIA; Peptide with targeting and/or antimicrobial activity)”, for which the “Organism, effect (morphology, biofilm and growth disruption)” value in the assay with microorganisms [1] (S. pneumoniae) is recorded as “S. pneumoniae (M)”. In addition, in the assay with bacteria, the “Target(s) (microorganisms bound by the targeting peptide)” value was “C. albicans; also recorded: S. pneumoniae; also recorded: E. faecalis; also recorded: C. jeikeium”. In addition, the Activities entry with microorganisms [2] is on record as “G B”.

For “PF-459 (EKRMSFNENQSHRPLL; Peptide with targeting and/or antimicrobial activity)”, the “Organism, effect (morphology, biofilm and growth disruption)” value with microorganisms [1] (S. pneumoniae) is recorded as “S. pneumoniae (H)”. The “Target(s) (microorganisms bound by the targeting peptide)” value in the assay with bacteria is reported as “P. aeruginosa”. In addition, in the assay with microorganisms [2], the Activities result is “G B”.

For the substance “PF-461 (MTLAIKNCSVTKCLGFGDFVNDDSDSYFDA; Peptide with targeting and/or antimicrobial activity)”, the “Organism, effect (morphology, biofilm and growth disruption)” value with microorganisms [1] (E. faecalis) was “E. faecalis (A)”; in the assay with microorganisms [1] (MRSA) it was “MRSA (R)”; in the assay on microorganisms [1] (S. pneumoniae), “S. pneumoniae (R)”. For the same substance, the “Target(s) (microorganisms bound by the targeting peptide)” value in the assay with bacteria is reported as “E. coli; also recorded: S. pneumoniae”. Further, in the assay with microorganisms [2], the Activities result is “G B”.

For the substance “PF-462 (KNKTDTL; Peptide with targeting and/or antimicrobial activity)”, the “Organism, effect (morphology, biofilm and growth disruption)” value in the assay on microorganisms [1] (S. pneumoniae) is on record as “S. pneumoniae (H)”. In the assay with bacteria, the “Target(s) (microorganisms bound by the targeting peptide)” value is “E. faecalis; also recorded: C. jeikeium”. Also, in the assay on microorganisms [2], the Activities entry is “G B”.

As for “PF-464 (VDMVNRFLGN; Peptide with targeting and/or antimicrobial activity)”, the “Organism, effect (morphology, biofilm and growth disruption)” value in the assay on microorganisms [1] (S. pneumoniae) is recorded as “S. pneumoniae (S)”. Besides, the “Target(s) (microorganisms bound by the targeting peptide)” value with bacteria is “S. epidermidis and C. albicans and MRSA and S. pneumoniae and E. faecalis and C. jeikeium and C. jejuni”. The Activities entry in the assay on microorganisms [2] is listed as “G B”.

Take “PF-466 (VRKSDQ; Peptide with targeting and/or antimicrobial activity)”: in the assay with microorganisms [1] (S. pneumoniae), the “Organism, effect (morphology, biofilm and growth disruption)” value is “S. pneumoniae (H)”. Moreover, the “Target(s) (microorganisms bound by the targeting peptide)” value in the assay with bacteria is “MRSA and C. jeikeium and C. jejuni”. In addition, the Activities result with microorganisms [2] is listed as “G B”.

Regarding “PF-467 (YYKDYFKEI; Peptide with targeting and/or antimicrobial activity)”, in the assay with microorganisms [1] (S. pneumoniae), the “Organism, effect (morphology, biofilm and growth disruption)” value is “S. pneumoniae (H)”. Besides, in the assay with bacteria, the “Target(s) (microorganisms bound by the targeting peptide)” value is “MRSA and E. faecalis and C. jeikeium and C. jejuni”. Moreover, the Activities entry in the assay on microorganisms [2] was “G B”.

For “PF-470 (PYSDSYATRPHWEQHRAR; Peptide with targeting and/or antimicrobial activity)”, the “Organism, effect (morphology, biofilm and growth disruption)” value in the assay on microorganisms [1] (C. jejuni) is recorded as “C. jejuni (A)”; with microorganisms [1] (E. faecalis), “E. faecalis (A)”. Moreover, the “Target(s) (microorganisms bound by the targeting peptide)” value with bacteria is “M. luteus and E. coli and MRSA and E. faecalis and C. jeikeium and C. jejuni”. The Activities result in the assay on microorganisms [2] is “G B”.

Regarding “PF-472 (MHISHLLDEVEQTEREKAVNVLENMNGNVI; Peptide with targeting and/or antimicrobial activity)”, the “Organism, effect (morphology, biofilm and growth disruption)” value is listed as “C. jejuni (R)” in the assay on microorganisms [1] (C. jejuni), “E. faecalis (A)” in the assay on microorganisms [1] (E. faecalis), “MRSA (C)” in the assay on microorganisms [1] (MRSA) and “S. pneumoniae (R)” in the assay on microorganisms [1] (S. pneumoniae). In addition, the “Target(s) (microorganisms bound by the targeting peptide)” value in the assay on bacteria is “S. epidermidis and E. coli and P. aeruginosa and C. albicans and MRSA and S. pneumoniae and E. faecalis and C. jeikeium”. In addition, the Activities result with microorganisms [2] is reported as “G B”.

For the substance “PF-476 (WADAQYKLCENCSE; Peptide with targeting and/or antimicrobial activity)”, in the assay on microorganisms [1] (S. pneumoniae), the “Organism, effect (morphology, biofilm and growth disruption)” value is on record as “S. pneumoniae (H)”. In addition, the “Target(s) (microorganisms bound by the targeting peptide)” value with bacteria is reported as “M. luteus; also recorded: P. mirabilis; also recorded: C. albicans; also recorded: S. pneumoniae; also recorded: E. faecalis; also recorded: C. jeikeium; also recorded: C. jejuni”. Moreover, the Activities result in the assay with microorganisms [2] is “G B”.

Turning to “PF-484 (HKKDIRKQVFKN; Peptide with targeting and/or antimicrobial activity)”, in the assay with microorganisms [1] (E. faecalis), the “Organism, effect (morphology, biofilm and growth disruption)” value is recorded as “E. faecalis (A)”. Also, the “Target(s) (microorganisms bound by the targeting peptide)” value in the assay on bacteria is “S. epidermidis; also recorded: M. luteus; also recorded: P. mirabilis; also recorded: E. coli; also recorded: E. faecalis; also recorded: C. jeikeium; also recorded: C. jejuni”. Besides, the Activities result in the assay with microorganisms [2] is reported as “G B”.

For the substance PF-513 (SNGVGLGVGIGSGIRF-NH2), in the assay on microorganisms [1] (S. pneumoniae), the “Organism, effect (morphology, biofilm and growth disruption)” value was “S. pneumoniae (M)”. In addition, in the assay with bacteria, the “Target(s) (microorganisms bound by the targeting peptide)” value is “C. albicans”. Besides, the Activities entry in the assay with microorganisms [2] is “G B”.

In the case of “PF-514 (QRFYKLFYHIDLTNEQALKLFQVK; Peptide with targeting and/or antimicrobial activity)”, the “Organism, effect (morphology, biofilm and growth disruption)” value was “E. coli (R)” in the assay on microorganisms [1] (E. coli), “E. faecalis (C)” in the assay on microorganisms [1] (E. faecalis), “S. epidermidis (C)” in the assay with microorganisms [1] (S. epidermidis) and “S. pneumoniae (M)” in the assay with microorganisms [1] (S. pneumoniae). Besides, in the assay on bacteria, the “Target(s) (microorganisms bound by the targeting peptide)” value was “S. epidermidis and E. coli and P. aeruginosa and C. albicans and MRSA and S. pneumoniae and E. faecalis and C. jeikeium”. Besides, the Activities entry in the assay with microorganisms [2] is “G B”.

As for PF-515 (DKSTQDKDIKQAKLLAQELGL-NH2), the “Organism, effect (morphology, biofilm and growth disruption)” value in the assay with microorganisms [1] (S. pneumoniae) was “S. pneumoniae (H)”. In the assay on bacteria, the “Target(s) (microorganisms bound by the targeting peptide)” value was “S. epidermidis; also recorded: C. albicans; also recorded: S. pneumoniae; also recorded: C. jeikeium”. The Activities result in the assay on microorganisms [2] is listed as “G B”.

Consider “PF-517 (VKPTMTASLISTVC; Peptide with targeting and/or antimicrobial activity)”, for which, in the assay with microorganisms [1] (S. pneumoniae), the “Organism, effect (morphology, biofilm and growth disruption)” value is on record as “S. pneumoniae (M)”. Besides, the “Target(s) (microorganisms bound by the targeting peptide)” value in the assay with bacteria is on record as “C. jejuni”. The Activities entry with microorganisms [2] is “G B”.

For “PF-518 (SFYSKYSRYIDNLAGAIFLFF; Peptide with targeting and/or antimicrobial activity)”, the “Organism, effect (morphology, biofilm and growth disruption)” value in the assay on microorganisms [1] (E. coli) is listed as “E. coli (R)”; in the assay on microorganisms [1] (E. faecalis), “E. faecalis (C)”; in the assay on microorganisms [1] (MRSA), “MRSA (C)”; in the assay on microorganisms [1] (S. epidermidis), “S. epidermidis (C)”; in the assay with microorganisms [1] (S. pneumoniae), “S. pneumoniae (M)”. In the assay with bacteria, the “Target(s) (microorganisms bound by the targeting peptide)” value was “S. epidermidis and E. coli and P. aeruginosa and C. albicans and MRSA and S. pneumoniae and E. faecalis”. Besides, the Activities entry in the assay on microorganisms [2] was “G B”.

With PF-519 (YLVYSGVLATAAAF-NH2), the “Organism, effect (morphology, biofilm and growth disruption)” value is given as “E. coli (R)” in the assay on microorganisms [1] (E. coli), “E. faecalis (C)” with microorganisms [1] (E. faecalis), “MRSA (C)” with microorganisms [1] (MRSA) and “S. pneumoniae (S)” in the assay on microorganisms [1] (S. pneumoniae). The “Target(s) (microorganisms bound by the targeting peptide)” value in the assay with bacteria is listed as “M. luteus; also recorded: E. faecalis; also recorded: C. jeikeium”. The Activities result with microorganisms [2] is listed as “G B”.

Regarding PF-528 (LVDVVVLIRRHLPKSCS-NH2), the “Organism, effect (morphology, biofilm and growth disruption)” value with microorganisms [1] (C. albicans) is “C. albicans (C)”; in the assay with microorganisms [1] (E. coli), “E. coli (H)”; in the assay on microorganisms [1] (MRSA) it was “MRSA (H)”; in the assay with microorganisms [1] (S. epidermidis) it was “S. epidermidis (H)”; with microorganisms [1] (S. pneumoniae), “S. pneumoniae (R)”. Besides, the “Target(s) (microorganisms bound by the targeting peptide)” value with bacteria is “S. epidermidis and P. aeruginosa and C. albicans and MRSA and S. pneumoniae and E. faecalis”. The Activities entry in the assay with microorganisms [2] was “G B”.

For the origin of these results see patent US9597407B2, “Targeted antimicrobial moieties” (C3 Jian, Inc., priority 2009, dated 2017).
